These results are taken from PMC3833878, “In Silico Molecular Comparisons of C. elegans and Mammalian Pharmacology Identify Distinct Targets That Regulate Feeding” (PLoS Biology, 2013).

The target of test [1] is T1, mglur-8 (Rattus norvegicus, UniProt P70579).
T1 construct: expressed in transfected cells; host or cells: CHO cells
Put plainly: Cell-based mGluR-8 activity assay, CHO cells stimulated with 1 µM L-AP4, concentration response. How it is done: (§1) Tachykinin, ghrelin, and calcium-sensing receptor activity were measured using a cell-based Ca flux assay by Multispan, Inc. (Hayward, California). Cholescystokinin A and B receptors were assayed for effects on cAMP production, and nicotinic acid receptor activity was measured in a cell-based assay of forskolin-stimulated cAMP production by Multispan, Inc. […], PP2A phosphatase activity assays were performed by CEREP (Celle l'Evescault, France) using PP2A from human erythrocytes. Phospholipase C from Bacillus cereus was assayed by CEREP, Inc. using glycero-phosphatidyl ethanolamine as a substrate, monitoring diacyl glycerol production. Radioligand binding assays for PPAR-α, γ, δ and the androgen receptor were performed by CEREP, Inc. CARNA Biosciences (Kobe, Japan) performed in vitro kinase activity assays using recombinant catalytic domains and measured phosphorylation of an Src-derived peptide for Flt-3 and phosphatidyl inositol for PI3KCA. Radioligand binding assays for the oxytocin receptor, D4 dopamine receptor, cannabinoid CB2 receptor, and angiotensin type I and II receptors were performed as described previously, as were cell-based activity assays for mGluR 1a, 2, 4, 5, 6, and 8 [60]–[62].
(§2) Supplementary file pbio.1001712.s001.tif: Figure S1 Dose-response measurements that validate SEA predictions for GPCRs. […]

Test [2] has as its target T2, MGLUR6 (Homo sapiens, UniProt O15303).
T2 construct: expressed in transfected cells
As to the kind of experiment: Cell-based mGluR activity assay. The conditions noted are these: 10 µM B16. As for the experimental part: as §1
(§3) Table S2. Activity of 10 µM B16 on human metabotropic glutamate receptors.
(§4) ^a Data are normalized to the maximum response of cells treated with 1 mM glutamate or 0.1 mM AP4 alone.
(§5) ^b Percent difference in maximum activity of cells treated with glutamate or AP4 with B16 vehicle versus concurrent treatment with 10 µM B16.

In test [3] the target is T3, MGLUR5 (Homo sapiens, UniProt P41594).
T3 construct: expressed in transfected cells
As to the kind of experiment: Cell-based mGluR activity assay. How it is done:
as §1, §3, §4, §5

In test [4] the target is T4, MGLUR4 (Homo sapiens, UniProt Q14833).
T4 construct: expressed in transfected cells
Put plainly: Cell-based mGluR activity assay. The conditions noted are these: 10 µM B16. How it is done:
as §1, §3, §4, §5

The target in test [5] is T5, MGLUR2 (Homo sapiens, UniProt Q14416).
T5 construct: expressed in transfected cells
As to the kind of experiment: Cell-based mGluR activity assay. Particulars: 10 µM B16. How it is done:
as §1, §3, §4, §5

The target of test [6] is T6, MGLUR1a (Homo sapiens, UniProt Q13255).
T6 construct: expressed in transfected cells
Put plainly: Cell-based mGluR activity assay. The conditions noted are these: 10 µM B16. As for the experimental part:
as §1, §3, §4, §5

Test [7] has as its system mgl-2(tm355) mutant C. elegans. As to the kind of experiment: Pharyngeal pumping assay, compound on high-feeding mutant. Particulars: to C. elegans mgl-2 (F45H11.4), homolog of human mGluR-8. In kind it is in vivo. How it is done:
(§6) Compounds at 1,000× stock concentrations (0.1–10 mM) in DMSO or an equal volume of DMSO were diluted in a suspension of E. coli OP-50 (100 µl of a 3× concentrated overnight culture in LB broth) and absorbed as a single drop onto 3.5 cm plates containing 2.5 ml of NGM agar forming a well-defined lawn of bacteria. For developmental exposures, 20–30 synchronized first larval stage C. elegans derived from alkaline hypochlorite treatment of gravid adults were applied to the preseeded plates and cultured until assay at mid-L4 stage (2 d, 20°C) or as day 1 gravid adults (3 d, 20°C). For naïve adult exposures, synchronized first larval stage animals were cultured on NGM-agar plates seeded with E. coli OP-50 for 3 d at 20°C, then transferred to assay plates, and pumping was assayed 1 to 16 h later. Comparisons between vehicle-treated and compound-treated animals were always performed between animals at the same developmental stage and same exposure time. Pharyngeal pumping was counted by live observation at 115–200× magnification using a stereo microscope and recorded at 10 s intervals using a manually controlled digital cell counter. Alternatively, C. elegans pumping was recorded for longer intervals (30–60 s) using bright-field time-lapse microscopy at 120× magnification with a 20 images per second acquisition rate. The resulting movies were analyzed manually at a playback rate of 10 images per second.
(§7) Significance was determined by one-way ANOVA applying a Dunnett's posttest when comparing multiple treatments to a single control and a Bonferroni posttest when comparing the more than two treatments against one another. For pairwise nonrepeated measured comparisons, a student's t test was used. To express data as a percentage of control, the pumping rates of compound-treated animals were divided by the mean pumping rate of the DMSO-treated wild-type animals measured in the same experiment, unless indicated otherwise. Error bars on the control samples indicate the variation around that mean, which is utilized in all statistical calculations.
(§8) The pumping rates are expressed as a percentage of the mutant’s pumping rate on DMSO, the vehicle control. p-values were calculated relative to DMSO treatment of each mutant by one-way ANOVA using Dunnett’s multiple comparison test.

In test [8] the test system is wild-type C. elegans. Put plainly: Pharyngeal pumping assay. Type of test: in vivo. Particulars: for increase in pharyngeal pumping / exposure time after which the feeding elevating effect was notable: 10 µM; for increase in pharyngeal pumping: cultured 3 d from L1, long-term video (60 s) and short-term manual (10 s) measurements; for exposure time after which the feeding elevating effect was notable: naïve day 1 gravid adults; for effect on the pharyngeal pumping rate: 10 µM versus 0.1% DMSO; for EC50: Caenorhabditis elegans, read-out: EC50 of the dose-dependent increase in the pharyngeal pumping rate. As for the experimental part: as §6, §7

The test system of test [9] is C. elegans. Also noted: method as in earlier work. Particulars: earlier phenotypic screen ref 11; cited from earlier work.
Test [10] concerns MGLUR8. As to the kind of experiment: Cell-based mGluR activity assay. On the set-up: species or system human. The conditions noted are these: 10 µM B16. As for the experimental part: as §1
Table S2. Activity of 10 µM B16 on human metabotropic glutamate receptors. […]

Test [11] concerns the target T7, flt-3 receptor (CD135) (Homo sapiens, UniProt P36888).
T7 construct: Flt-3 receptor catalytic domain (amino acids 564–993); purchased CARNA Biosciences (Kobe, Japan)
As to the kind of experiment: In vitro kinase activity assay, recombinant Flt-3 receptor catalytic domain, srctide phosphorylation (CARNA). Type of test: biochemical. How it is done:
as §1, with “Radioligand binding assays for the oxytocin receptor, D4 dopamine receptor, cannabinoid CB2 receptor, and angiotensin type I and II receptors were performed as described previously, as were cell-based activity assays for mGluR 1a, 2, 4, 5, 6, and 8 [60]–[62].” left out
(§9) Supplementary file pbio.1001712.s002.tif: Figure S2 Dose-dependent inhibitory activity for compounds predicted by SEA to inhibit kinases. (A–B) Varying concentrations of J6 and L10 were incubated with full-length recombinant human PI3KCA and ATP (50 µM) for 5 h and the phosphorylation level of the substrate phosphatidylinositol was measured. […]

Test [12] deals with ver-3(ok891) mutant C. elegans. Put plainly: Pharyngeal pumping assay, compound on high-feeding mutant. Type of test: in vivo. Particulars: to C. elegans ver-3 (F59F3.1), homolog of human Flt-3 receptor. How it is done: as §6, §7, §8
The target in test [13] is oxytocin receptor (Homo sapiens, UniProt P30559). As to the kind of experiment: Radioligand binding assay, 3H-oxytocin binding to the oxytocin receptor. As for the experimental part:
as §1, §2

For test [14], the system named is gnrr-1(ok238) mutant C. elegans. Put plainly: Pharyngeal pumping assay, compound on high-feeding mutant. Type of test: in vivo. Particulars: to C. elegans gnrr-1 (F54D7.3), homolog of human Oxtr. How it is done: as §6, §7, §8
Test [15] concerns the target androgen receptor (Homo sapiens, UniProt P10275). As to the kind of experiment: Radioligand binding assay, 3H-Mibolerone binding to the androgen receptor (CEREP). As for the experimental part: as §1, with “[60]-[62]. Supplementary file pbio.1001712.s003.tif: Figure S3 Dose-response relationships for compounds that bind nuclear hormone receptors. […]” for “[60]–[62].”
The target of test [16] is dopamine receptor D4 (Homo sapiens, UniProt P21917). As to the kind of experiment: Radioligand binding assay, 3H-risperidone binding to the dopamine D4 receptor. How it is done: as §1, §2
Test [17] concerns the target T8, PPAR-γ (Homo sapiens, UniProt P37231).
T8 construct: CEREP, Inc. (assay run by the contract laboratory)
As to the kind of experiment: Radioligand binding assay, 3H-Rosiglitazone binding to PPAR-γ (CEREP). How it is done:
as §1
Supplementary file pbio.1001712.s003.tif: Figure S3 Dose-response relationships for compounds that bind nuclear hormone receptors. […]

For test [18], the target named is T9, PI3K p110α (Homo sapiens, UniProt P42336).
T9 construct: full-length recombinant human PI3KCA; purchased CARNA Biosciences (Kobe, Japan)
As to the kind of experiment: In vitro kinase activity assay, recombinant PI3KCA, phosphatidylinositol phosphorylation (CARNA). Type of test: biochemical. The conditions noted are these: marked with footnote d in Figure 2; 50 µM ATP, 5 h. As for the experimental part: as §1, with “Radioligand binding assays for the oxytocin receptor, D4 dopamine receptor, cannabinoid CB2 receptor, and angiotensin type I and II receptors were performed as described previously, as were cell-based activity assays for mGluR 1a, 2, 4, 5, 6, and 8 [60]–[62].” left out
as §9

Setting [19] is: normalized to the maximum response of cells treated with 1 mM glutamate or 0.1 mM AP4 alone.
The mark [20] stands for this setting: percent difference in maximum activity of cells treated with glutamate or AP4 with vehicle versus B16.
Setting [21] is: wild-type, serial 3-fold dilutions.

The structures appear in SMILES notation. Bounds are passed on as bounds.

T3 sequence (P41594 21-1212): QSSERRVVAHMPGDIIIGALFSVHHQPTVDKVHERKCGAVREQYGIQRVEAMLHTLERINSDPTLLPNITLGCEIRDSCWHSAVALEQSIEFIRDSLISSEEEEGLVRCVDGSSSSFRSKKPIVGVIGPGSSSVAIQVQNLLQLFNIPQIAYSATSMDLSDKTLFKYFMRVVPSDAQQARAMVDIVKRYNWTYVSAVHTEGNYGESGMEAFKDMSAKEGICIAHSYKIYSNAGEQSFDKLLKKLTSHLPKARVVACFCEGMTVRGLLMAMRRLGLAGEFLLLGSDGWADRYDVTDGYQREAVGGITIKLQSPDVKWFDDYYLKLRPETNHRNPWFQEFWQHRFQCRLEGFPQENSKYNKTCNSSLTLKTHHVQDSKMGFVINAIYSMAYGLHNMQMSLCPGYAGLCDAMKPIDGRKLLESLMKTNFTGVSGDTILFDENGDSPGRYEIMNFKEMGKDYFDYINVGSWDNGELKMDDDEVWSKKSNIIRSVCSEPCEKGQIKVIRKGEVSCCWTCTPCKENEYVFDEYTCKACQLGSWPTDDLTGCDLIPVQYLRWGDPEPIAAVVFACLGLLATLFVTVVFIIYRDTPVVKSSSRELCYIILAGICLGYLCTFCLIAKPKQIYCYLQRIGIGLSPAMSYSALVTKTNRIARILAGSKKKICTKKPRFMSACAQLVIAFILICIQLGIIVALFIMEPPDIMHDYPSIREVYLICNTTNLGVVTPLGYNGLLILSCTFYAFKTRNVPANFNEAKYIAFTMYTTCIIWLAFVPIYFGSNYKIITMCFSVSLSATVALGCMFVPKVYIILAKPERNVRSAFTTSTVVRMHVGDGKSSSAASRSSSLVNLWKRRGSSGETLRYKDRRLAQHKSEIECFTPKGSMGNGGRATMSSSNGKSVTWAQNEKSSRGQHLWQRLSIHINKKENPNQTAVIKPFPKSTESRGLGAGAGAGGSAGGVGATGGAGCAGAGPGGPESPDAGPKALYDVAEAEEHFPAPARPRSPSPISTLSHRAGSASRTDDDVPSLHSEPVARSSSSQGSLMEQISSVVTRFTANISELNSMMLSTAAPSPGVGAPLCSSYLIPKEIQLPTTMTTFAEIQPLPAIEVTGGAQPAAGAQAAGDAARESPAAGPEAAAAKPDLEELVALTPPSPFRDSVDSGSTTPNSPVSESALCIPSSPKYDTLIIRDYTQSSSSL
T4 sequence (Q14833 33-912): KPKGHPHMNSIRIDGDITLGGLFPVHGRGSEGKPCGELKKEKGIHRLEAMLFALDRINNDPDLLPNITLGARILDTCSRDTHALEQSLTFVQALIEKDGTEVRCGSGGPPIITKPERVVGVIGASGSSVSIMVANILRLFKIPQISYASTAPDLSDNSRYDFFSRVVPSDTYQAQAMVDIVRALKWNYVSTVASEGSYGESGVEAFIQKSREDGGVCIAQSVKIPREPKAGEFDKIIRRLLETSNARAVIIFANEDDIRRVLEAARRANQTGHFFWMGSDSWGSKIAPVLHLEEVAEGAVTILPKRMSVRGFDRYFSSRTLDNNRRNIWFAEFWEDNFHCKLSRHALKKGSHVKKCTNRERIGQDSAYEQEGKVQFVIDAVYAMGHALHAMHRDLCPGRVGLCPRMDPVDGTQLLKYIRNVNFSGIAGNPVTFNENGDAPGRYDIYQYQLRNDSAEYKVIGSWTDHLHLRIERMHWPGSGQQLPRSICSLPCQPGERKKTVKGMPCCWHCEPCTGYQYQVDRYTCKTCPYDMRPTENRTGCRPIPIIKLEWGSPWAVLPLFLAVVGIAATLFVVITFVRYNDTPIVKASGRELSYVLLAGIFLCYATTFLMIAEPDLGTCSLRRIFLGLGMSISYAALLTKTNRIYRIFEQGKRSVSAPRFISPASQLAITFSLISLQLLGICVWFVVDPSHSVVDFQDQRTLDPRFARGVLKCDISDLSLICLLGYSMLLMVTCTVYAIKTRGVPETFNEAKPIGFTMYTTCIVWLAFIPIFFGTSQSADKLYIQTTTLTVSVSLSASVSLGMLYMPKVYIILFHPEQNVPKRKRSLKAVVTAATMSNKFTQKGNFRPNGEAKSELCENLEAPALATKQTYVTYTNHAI
T2 sequence (O15303 25-877): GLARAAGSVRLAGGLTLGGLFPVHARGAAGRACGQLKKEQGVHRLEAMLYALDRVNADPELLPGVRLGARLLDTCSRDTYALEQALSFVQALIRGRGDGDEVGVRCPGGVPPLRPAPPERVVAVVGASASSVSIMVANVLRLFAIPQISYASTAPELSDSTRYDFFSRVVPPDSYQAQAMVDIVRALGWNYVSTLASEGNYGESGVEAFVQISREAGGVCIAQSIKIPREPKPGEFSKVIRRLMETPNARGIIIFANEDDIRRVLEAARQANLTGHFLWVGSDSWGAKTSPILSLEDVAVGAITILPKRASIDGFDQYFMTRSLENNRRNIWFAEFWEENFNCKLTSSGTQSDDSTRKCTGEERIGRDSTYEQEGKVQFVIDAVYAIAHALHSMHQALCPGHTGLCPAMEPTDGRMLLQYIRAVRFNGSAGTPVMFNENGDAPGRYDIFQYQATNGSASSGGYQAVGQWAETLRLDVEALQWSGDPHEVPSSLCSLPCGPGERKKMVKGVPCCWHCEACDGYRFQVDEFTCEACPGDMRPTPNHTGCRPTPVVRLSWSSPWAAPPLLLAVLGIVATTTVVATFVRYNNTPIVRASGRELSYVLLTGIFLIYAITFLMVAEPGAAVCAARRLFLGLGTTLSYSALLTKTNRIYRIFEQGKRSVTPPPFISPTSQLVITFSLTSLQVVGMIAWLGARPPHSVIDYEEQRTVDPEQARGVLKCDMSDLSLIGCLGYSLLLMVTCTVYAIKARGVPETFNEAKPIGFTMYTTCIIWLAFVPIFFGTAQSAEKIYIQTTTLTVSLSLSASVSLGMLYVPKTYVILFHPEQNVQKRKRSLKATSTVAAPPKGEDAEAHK
T7 sequence (P36888 564-993): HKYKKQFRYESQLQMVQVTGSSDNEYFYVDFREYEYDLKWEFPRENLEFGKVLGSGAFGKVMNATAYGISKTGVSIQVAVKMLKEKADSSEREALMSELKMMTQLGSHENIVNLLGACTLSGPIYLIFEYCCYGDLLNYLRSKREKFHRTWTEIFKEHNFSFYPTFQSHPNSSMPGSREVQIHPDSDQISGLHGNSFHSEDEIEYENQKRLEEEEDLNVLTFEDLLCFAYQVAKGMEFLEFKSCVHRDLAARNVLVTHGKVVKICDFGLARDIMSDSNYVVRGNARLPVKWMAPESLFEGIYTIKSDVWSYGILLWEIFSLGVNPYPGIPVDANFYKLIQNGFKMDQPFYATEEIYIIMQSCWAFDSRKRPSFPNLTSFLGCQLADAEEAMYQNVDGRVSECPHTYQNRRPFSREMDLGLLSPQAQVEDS
T5 sequence (Q14416 19-872): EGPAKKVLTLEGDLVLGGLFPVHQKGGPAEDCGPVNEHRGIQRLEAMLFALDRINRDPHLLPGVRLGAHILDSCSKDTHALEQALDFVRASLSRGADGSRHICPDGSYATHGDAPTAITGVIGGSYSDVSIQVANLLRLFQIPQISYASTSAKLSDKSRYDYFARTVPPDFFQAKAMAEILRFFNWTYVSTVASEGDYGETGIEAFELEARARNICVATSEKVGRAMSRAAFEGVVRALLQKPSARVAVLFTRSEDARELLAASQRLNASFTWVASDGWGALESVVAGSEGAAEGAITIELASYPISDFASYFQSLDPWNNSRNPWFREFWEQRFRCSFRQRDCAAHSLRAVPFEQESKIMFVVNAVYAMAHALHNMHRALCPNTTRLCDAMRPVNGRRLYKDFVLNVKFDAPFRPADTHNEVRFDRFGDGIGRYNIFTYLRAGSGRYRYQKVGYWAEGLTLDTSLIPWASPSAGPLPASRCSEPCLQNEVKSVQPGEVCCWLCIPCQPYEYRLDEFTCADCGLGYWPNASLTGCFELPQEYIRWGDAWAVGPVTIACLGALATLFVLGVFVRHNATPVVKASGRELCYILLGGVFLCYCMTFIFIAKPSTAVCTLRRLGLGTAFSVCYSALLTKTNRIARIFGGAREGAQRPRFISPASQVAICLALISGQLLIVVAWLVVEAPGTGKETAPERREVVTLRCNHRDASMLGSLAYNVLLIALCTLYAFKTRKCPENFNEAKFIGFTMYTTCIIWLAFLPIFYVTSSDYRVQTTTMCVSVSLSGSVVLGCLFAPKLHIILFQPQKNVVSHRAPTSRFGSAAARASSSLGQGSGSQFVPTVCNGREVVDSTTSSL
Chain of oxytocin receptor (P30559 whole entry): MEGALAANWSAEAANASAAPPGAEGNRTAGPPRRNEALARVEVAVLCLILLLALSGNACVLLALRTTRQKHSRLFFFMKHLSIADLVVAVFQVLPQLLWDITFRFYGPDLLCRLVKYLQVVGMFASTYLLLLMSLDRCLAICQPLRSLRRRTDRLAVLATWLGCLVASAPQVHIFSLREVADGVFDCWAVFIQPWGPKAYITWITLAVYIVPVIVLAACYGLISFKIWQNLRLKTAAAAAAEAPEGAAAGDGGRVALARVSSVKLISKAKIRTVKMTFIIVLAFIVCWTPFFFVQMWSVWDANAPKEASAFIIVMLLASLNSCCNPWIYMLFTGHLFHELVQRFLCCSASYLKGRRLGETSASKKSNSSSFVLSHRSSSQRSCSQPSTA
Chain of dopamine receptor D4 (P21917 whole entry): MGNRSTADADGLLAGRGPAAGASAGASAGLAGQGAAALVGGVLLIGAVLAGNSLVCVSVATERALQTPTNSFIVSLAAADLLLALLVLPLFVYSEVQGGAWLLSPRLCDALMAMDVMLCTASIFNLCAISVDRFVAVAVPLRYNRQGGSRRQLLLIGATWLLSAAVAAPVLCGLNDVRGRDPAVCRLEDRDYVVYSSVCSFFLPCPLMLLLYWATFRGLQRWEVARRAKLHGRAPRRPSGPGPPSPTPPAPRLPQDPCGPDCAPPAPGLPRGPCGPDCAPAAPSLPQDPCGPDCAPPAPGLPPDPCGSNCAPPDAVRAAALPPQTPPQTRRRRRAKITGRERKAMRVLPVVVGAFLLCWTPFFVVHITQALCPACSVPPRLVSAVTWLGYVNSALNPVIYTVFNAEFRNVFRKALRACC

`Cc1cc(C)c2c(N)c(C(=O)Nc3ccccn3)sc2n1` [B16]: the figures for the Ki in test [1] and in test [3] (Figure 2) were 9.8 µM and above 30 µM, respectively. Also, the “% agonism” value in test [2] (setting [19]) is given as 13%; in [3] (10 µM B16, normalized to the maximum response of cells treated with 1 mM glutamate or 0.1 mM AP4 alone), -14%; in [4] (setting [19]) it was -8%; in test [5] (setting [19]), 0%; in test [6] (setting [19]), -4%; in test [10] (setting [19]), -3%. The inhibition at 10 µM is -17% in [2] (setting [20]); 11% in test [3] (10 µM B16, percent difference in maximum activity of cells treated with glutamate or AP4 with vehicle versus B16); 4% in [4] (setting [20]); 12% in [5] (setting [20]); 24% in test [6] (setting [20]). Further, the Pharmacological relationship result in test [7] is “antagonist”. Besides, the “increase in pharyngeal pumping” value in test [8] was 7%–12%. Also, the “exposure time after which the feeding elevating effect was notable” value (from here on “exposure time”) in test [8] is at most 1 h. Also, in test [8] (wild-type), the “effect on the pharyngeal pumping rate” value is “increased”. In test [9], the “Nile Red staining” value is “decreased”. Further, the “% inhibition” value in test [10] (setting [20]) came out at 49%.
`Cc1sc(NC(=O)c2ccccc2Br)c(C(N)=O)c1C` [D20]: the inhibitory constant (Ki) in [11] (marked with footnote d in Figure 2, 100 µM ATP, 1 h) is 0.169 µM. In addition, in test [12], the Pharmacological relationship entry is “antagonist”. In addition, in [8], the “increase in pharyngeal pumping” value was 7%–12% and the “exposure time” value is at most 1 h. The EC50 in test [8] (setting [21]) was 0.6 µM. Moreover, the “effect on the pharyngeal pumping rate” value in test [8] (wild-type) is on record as “increased”. Further, the “Nile Red staining” value in test [9] is “decreased”.
`COc1ccc(N(CC(=O)NCc2ccco2)S(=O)(=O)c2ccccc2)cc1Cl` [F15] gave a Ki in [13] of 1.8 µM. Besides, in [14], the Pharmacological relationship entry is “antagonist”. In test [8], the “increase in pharyngeal pumping” value is listed as 7%–12% and the “exposure time” value was at most 1 h. Further, the EC50 in [8] (setting [21]) was found to be 0.4 µM. Also, in test [8] (wild-type), the “effect on the pharyngeal pumping rate” value is “increased”. In addition, the “Nile Red staining” value in test [9] was “decreased”.
In test [15], `CC12C(=O)N(c3ccc(Cl)c(Cl)c3)C(=O)C1C1C=CC2C1` (centres unmarked) [G6] displayed a Ki of 0.0086 µM.
Turning to `O=C(CN1CCN(c2ccccc2)CC1)Nc1cc(C(F)(F)F)ccc1Cl` [G7], the inhibitory constant (Ki) in test [16] was 1.9 µM.
`O=C(Nc1ccccc1C(=O)O)c1ccc(Br)c(S(=O)(=O)N2CCCCC2)c1` [I10] gave a Ki in test [17] of 1.3 µM.
For the compound `Cc1nc(N2CCOCC2)c2oc3ccccc3c2n1` [J6], the inhibition constant (Ki) in [18] was determined as 4.6 µM.
For `CC1CCc2c(sc(NC(=O)c3cccs3)c2C(N)=O)C1` (centres unmarked) [K9], the “activity on the predicted mammalian target Flt-3 kinase in vitro” value in test [11] (Table S1 (not readable)) was “fail to modulate”. For the same compound, the “effect on feeding rate” value in test [8] (setting [21]) is on record as “dose-dependent increase”.
In the case of `O=C1NC(=O)/C(=C\c2ccc(-c3cccc(Br)c3)o2)S1` [L10], the inhibition constant (Ki) in test [18] came to 2.9 µM.
As to `CC[C@H](NC(=O)c1c(C)c(-c2ccccc2)nc2ccccc12)c1ccccc1` [SB222200, reference compound], in test [8] (wild-type, 200 nM), the effect on feeding entry is reported as “increased feeding”.
